Measurements from publication PMC11123956, “Nobiletin Stimulates Adrenal Hormones and Modulates the Circadian Clock in Mice” (Nutrients, 2024).

Assays:
PDE4A1A = biological target: T1, PDE4A1A (Homo sapiens, UniProt P27815); test: PDE enzyme (kinase) assay, PDE4A1A; type: biochemical
T1 construct: purchased Eurofins Panlabs Discovery Services Taiwan, Ltd. (contract assay); host or cells: insect Sf9 cells
Experimental: (§1) Enzyme assays for various subtypes of PDE (Table 1 and Figure 4) were conducted by Eurofins Panlabs Discovery Services Taiwan, Ltd. (New Taipei City, Taiwan). In the assays, five or six concentrations of nobiletin over five or six orders of magnitude were examined in experiments conducted in duplicate to determine the IC50 (concentration of nobiletin exerting half-maximal inhibition of control-specific activity). IC50 values were determined by nonlinear least squares regression analysis using MathIQTM (ID Business Solutions Ltd., Woking, UK). FAM-cAMP, FAM-cGMP (0.1 μM), and 100 μM [^3H]cGMP + cGMP were used for the substrate in the human recombinant insect Sf9 cells or Bovine retinal rod outer segments depending on the PDE subtype. The spectrofluorometric quantitation of fluorescein-AMP-IMAP, fluorescein-GMP-IMAP, or [^3H] guanosine was used depending on the PDE subtype. A known […] of each PDE was used as the positive control.
(§2) Figure 4 PDE kinase assays and the acute clock gene expression changes by PDE4 inhibitor or ROR α/γ agonist. (A) Inhibitory effect of nobiletin on PDE4A1, 4B1, and 10A2. Various concentrations of nobiletin (1–100 μM) were used for IC50 determination (Table 1). Values represent the mean of two experiments. Positive controls were rolipram for PDE4A1 and 4B1 and papaverine for PDE10A2. […]

CRF in the hypothalamus = CRF in the hypothalamus ELISA; type: in vivo, mice; conditions: an hour after injection (50 or 100 mg/kg)
Experimental: Serum corticosterone, adrenaline, and adreno-corticotropic hormone (ACTH) levels, and corticotropin releasing factor (CRF) in the hypothalamus, were measured using enzyme-linked immunosorbent assay (ELISA). A corticosterone ELISA kit (Cayman Chemical Company, Ann Arbor, MI, USA), an adrenaline ELISA kit (Abcam, Cambridge, UK), an ACTH ELISA kit (Phoenix Pharmaceuticals Inc., Burlingame, CA, USA), and a CRF ELISA kit (Yanaihara Institute Inc., Shizuoka, Japan) were used. Assays were conducted according to the manufacturer’s instructions. Blood samples were collected from the mice at ZT4, 5, and 7 after the administration of nobiletin at ZT3 (10 mg/kg and 100 mg/kg, in Figure 3A,B). Blood glucose levels were measured using a Glucose PILOT kit (Aventir Biotech, LLC, Carlsbad, CA, USA). The range of blood glucose that could be precisely measured with the kit was 20–600 mg/dL. Before measurement, we administered nobiletin (100 mg/kg body weight) to the mice, after 4 h fasting. Blood was collected from the tail vein of each mouse for measurement. The measurements were conducted at 0, 15, 30, 45, 60, and 90 min after reagent administration in Figure 3C. Samples were collected one hour after nobiletin treatment (50 or 100 mg/kg; Figure 3D,E), or 2 or 4 h after treatment in Figure 3F. […]

PDE3 = tested on: PDE3; set-up: method as in PMID 19906817; conditions: cited from earlier work
[1] = set-up: method as in doi:10.1016/j.jddst.2022.104013; conditions: rats; cited from earlier work
PDE10A2 = biological target: T2, PDE10A2 (Homo sapiens, UniProt Q9Y233); test: PDE enzyme (kinase) assay, PDE10A2; type: biochemical
T2 construct: purchased Eurofins Panlabs Discovery Services Taiwan, Ltd. (contract assay); host or cells: insect Sf9 cells
T2 sequence (Q9Y233 267-1055): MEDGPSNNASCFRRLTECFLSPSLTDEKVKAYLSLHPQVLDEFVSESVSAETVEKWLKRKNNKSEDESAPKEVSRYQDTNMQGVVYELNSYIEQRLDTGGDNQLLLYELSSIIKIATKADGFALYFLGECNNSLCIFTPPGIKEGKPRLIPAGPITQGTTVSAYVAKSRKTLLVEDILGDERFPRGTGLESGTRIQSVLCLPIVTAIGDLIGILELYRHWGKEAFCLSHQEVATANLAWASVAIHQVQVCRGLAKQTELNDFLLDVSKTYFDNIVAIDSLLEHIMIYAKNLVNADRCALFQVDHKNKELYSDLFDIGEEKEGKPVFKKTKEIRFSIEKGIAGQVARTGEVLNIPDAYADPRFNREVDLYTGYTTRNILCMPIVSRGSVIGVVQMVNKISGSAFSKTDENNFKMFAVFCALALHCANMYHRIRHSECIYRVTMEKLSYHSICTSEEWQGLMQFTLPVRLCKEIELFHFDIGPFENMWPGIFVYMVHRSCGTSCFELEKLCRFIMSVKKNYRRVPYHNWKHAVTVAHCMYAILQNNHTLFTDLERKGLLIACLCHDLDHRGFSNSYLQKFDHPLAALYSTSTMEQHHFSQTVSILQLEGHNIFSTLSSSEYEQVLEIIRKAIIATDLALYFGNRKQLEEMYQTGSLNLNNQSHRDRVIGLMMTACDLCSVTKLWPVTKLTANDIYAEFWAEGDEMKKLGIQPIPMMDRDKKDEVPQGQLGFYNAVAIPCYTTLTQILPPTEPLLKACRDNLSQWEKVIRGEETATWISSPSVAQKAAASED
Experimental: as §1, §2

PDE5A = biological target: T3, PDE5A (Homo sapiens, UniProt O76074); test: PDE enzyme  assay, PDE5A; type: biochemical
T3 construct: purchased Eurofins Panlabs Discovery Services Taiwan, Ltd. (contract assay); host or cells: insect Sf9 cells
Experimental: as §1

T1 sequence (P27815 1-647 isoform P27815-4): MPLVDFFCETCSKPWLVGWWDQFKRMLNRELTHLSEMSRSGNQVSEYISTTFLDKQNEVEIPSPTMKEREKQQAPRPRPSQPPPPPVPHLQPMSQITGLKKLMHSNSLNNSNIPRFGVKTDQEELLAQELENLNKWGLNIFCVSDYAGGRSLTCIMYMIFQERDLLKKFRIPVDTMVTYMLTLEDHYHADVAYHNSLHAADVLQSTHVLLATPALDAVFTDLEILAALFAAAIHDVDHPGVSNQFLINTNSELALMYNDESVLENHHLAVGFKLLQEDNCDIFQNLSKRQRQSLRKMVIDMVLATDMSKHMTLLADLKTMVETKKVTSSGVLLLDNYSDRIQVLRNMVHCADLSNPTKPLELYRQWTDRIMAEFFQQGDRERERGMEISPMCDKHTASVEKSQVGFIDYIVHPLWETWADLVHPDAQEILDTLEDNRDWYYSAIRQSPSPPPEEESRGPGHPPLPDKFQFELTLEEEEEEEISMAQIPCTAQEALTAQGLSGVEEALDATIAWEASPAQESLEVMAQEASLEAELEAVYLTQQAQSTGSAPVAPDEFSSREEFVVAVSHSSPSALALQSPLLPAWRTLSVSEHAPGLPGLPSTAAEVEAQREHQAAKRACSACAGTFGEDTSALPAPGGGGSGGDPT

Q: With `COc1ccc(-c2cc(=O)c3c(OC)c(OC)c(OC)c(OC)c3o2)cc1OC` [nobiletin] as the molecule, how does the IC50 (PDE4A1A; IC50, PDE4A1A, bound stated in the discussion) read?
A: ≤ 6.03 µM

Q: And the IC50 (PDE4A1A; IC50 Dose, PDE4A1A, duplicate)?
A: 5.23 µM

Q: What about the “CRF in the hypothalamus” value (CRF in the hypothalamus) of the same molecule?
A: did not change significantly

Q: And the IC50 (PDE3)?
A: 10.4 µM

Q: What about the “time of the highest plasma concentration” value [1] of the same molecule?
A: 2 to 4 h

Q: What about the IC50 (PDE10A2; IC50, PDE10A2, bound stated in the discussion) of the same molecule?
A: ≤ 6.03 µM

Q: And the IC50 (PDE10A2; IC50 Dose, PDE10A2, duplicate)?
A: 1.51 µM

Q: What about the IC50 (PDE5A) of the same molecule?
A: 14.8 µM
